Assays:
NEK7-HiBiT protein = NEK7-HiBiT protein (Homo sapiens, UniProt Q8TDX7); assay: NEK7-HiBiT degradation assay (Nano-Glo HiBiT Lytic Assay) in HEK293 NEK7-HiBiT cells; type: cell-based; conditions: 24 h, conc. 0.1, 1 and 10 μM tested, concentration of the table values not stated, mean of 3 technical replicates
Method: HEK293 NEK7-HiBiT cells were generated using CRISPR-Cas9 system. HEK293 cells were transformed with pSpCas9-BB-2A-Puro v2.0 plasmid carrying gRNA targeting the N-terminus of NEK7 and ssODN template containing the HiBiT tag sequence with flanking homology sequences. Neon Transfection System (Thermo Fisher Scientific) was used for electroporation. HEK293 NEK7-HiBiT cells were cultured with DMEM Glutamax (Gibco) supplemented with 10% heat inactivated FBS (Gibco). After transfection the culture medium was changed to DMEM Glutamax with 10% heat-inactivated FBS and 1% Penicillin-Streptomycin (Biowest) supplemented with Puromycin (2 μg/ml; Invivogen) for clonal selection. In order to isolate single cell clones for further validation and analysis, limiting dilution cloning in 96-well plates was performed. When the single clones reached confluency, HiBiT Lytic Assay (Promega) was performed in order to identify HiBiT positive clones. The clone selected for further studies was verified and validated using genotyping and HiBiT Blotting (Promega).
Selected clone of HEK293 NEK7-HiBiT cells was maintained in the DMEM-Glutamax medium supplemented with 10% of heat-inactivated FBS (Gibco) and 1% of Penicillin-Streptomycin Solution 100x (Biowest) at 37° C., 5% CO2 and subcultured every 2-3 days.
For Nano-Glo HiBiT Lytic Assay HEK293 NEK7-HiBiT cells were seeded at the density 2×10^3 cells in triplicates in the 40 μL of growth medium per single well on 384 well plate (Greiner Bio-One). Compounds or DMSO were added to treatment plates using Echo555 Liquid Handler and incubated at 37° C., 5% CO2 for 24 hours. After incubation 40 μL of Nano-Glo HiBiT Lytic Reagent (prepared according to the manufacturer protocol) were added to 40 μL of the cell culture medium present in each well. The plate content was briefly mixed (460 rpm) on an orbital shaker to ensure cell lysis. The plate was left at RT protected from light for another 10 min to stabilize the luminescent signal. The luminescence signal was measured using CLARIOstar Multimode Plate Reader. Focus and gain were adjusted to DMSO treated cells. The results were calculated as the NEK7-HiBiT % relative to the DMSO control of 3 technical replicates relative to the DMSO control.
HEK293 NEK7-HiBiT cells were treated with the compounds (conc. 0.1, 1 and 10 μM) or DMSO for 24 h. After incubation with compounds NEK7-HiBiT degradation was measured as a luminescence signal using CLARIOstar Multimode Plate reader.
Additionally, compounds reducing NEK7-HiBiT protein level by >=50% at 0.1 μM, were also identified.

[1] = biological target: T1, [NEK7]-[compound of formula (I)]-[CRBN/DDB1] complex (Homo sapiens, UniProt Q8TDX7+Q96SW2); assay: AlphaLISA dose response ternary complex formation assay; type: binding; conditions: 1 μM compound, normalized to maximum signal of Compound 2 (positive control) and DMSO background; for activation at 1 µM: read-out: Normalized AlphaLISA ternary complex average signal at 1 μM molecule
T1 sequence (Q8TDX7 whole entry): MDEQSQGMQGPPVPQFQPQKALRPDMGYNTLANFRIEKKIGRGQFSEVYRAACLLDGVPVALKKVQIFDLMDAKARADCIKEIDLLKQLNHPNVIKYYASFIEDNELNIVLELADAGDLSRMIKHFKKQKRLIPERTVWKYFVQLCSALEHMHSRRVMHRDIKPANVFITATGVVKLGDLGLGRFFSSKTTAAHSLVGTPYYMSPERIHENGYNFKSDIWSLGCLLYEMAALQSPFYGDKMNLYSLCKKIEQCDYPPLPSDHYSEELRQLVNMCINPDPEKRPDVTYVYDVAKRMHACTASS
T1 sequence (Q96SW2 whole entry): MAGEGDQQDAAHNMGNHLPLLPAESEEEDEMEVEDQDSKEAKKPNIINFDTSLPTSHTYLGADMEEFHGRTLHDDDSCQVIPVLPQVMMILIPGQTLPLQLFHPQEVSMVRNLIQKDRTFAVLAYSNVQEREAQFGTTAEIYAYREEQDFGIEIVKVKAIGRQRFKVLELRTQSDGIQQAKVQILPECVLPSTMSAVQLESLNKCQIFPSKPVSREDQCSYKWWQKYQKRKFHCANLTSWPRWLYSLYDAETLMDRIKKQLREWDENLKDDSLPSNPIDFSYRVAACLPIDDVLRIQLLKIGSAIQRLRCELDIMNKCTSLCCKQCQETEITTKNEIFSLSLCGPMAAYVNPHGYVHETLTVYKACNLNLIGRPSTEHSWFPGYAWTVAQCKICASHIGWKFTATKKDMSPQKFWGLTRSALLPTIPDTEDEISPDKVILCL
T1 sequence (Q16531 whole entry partner): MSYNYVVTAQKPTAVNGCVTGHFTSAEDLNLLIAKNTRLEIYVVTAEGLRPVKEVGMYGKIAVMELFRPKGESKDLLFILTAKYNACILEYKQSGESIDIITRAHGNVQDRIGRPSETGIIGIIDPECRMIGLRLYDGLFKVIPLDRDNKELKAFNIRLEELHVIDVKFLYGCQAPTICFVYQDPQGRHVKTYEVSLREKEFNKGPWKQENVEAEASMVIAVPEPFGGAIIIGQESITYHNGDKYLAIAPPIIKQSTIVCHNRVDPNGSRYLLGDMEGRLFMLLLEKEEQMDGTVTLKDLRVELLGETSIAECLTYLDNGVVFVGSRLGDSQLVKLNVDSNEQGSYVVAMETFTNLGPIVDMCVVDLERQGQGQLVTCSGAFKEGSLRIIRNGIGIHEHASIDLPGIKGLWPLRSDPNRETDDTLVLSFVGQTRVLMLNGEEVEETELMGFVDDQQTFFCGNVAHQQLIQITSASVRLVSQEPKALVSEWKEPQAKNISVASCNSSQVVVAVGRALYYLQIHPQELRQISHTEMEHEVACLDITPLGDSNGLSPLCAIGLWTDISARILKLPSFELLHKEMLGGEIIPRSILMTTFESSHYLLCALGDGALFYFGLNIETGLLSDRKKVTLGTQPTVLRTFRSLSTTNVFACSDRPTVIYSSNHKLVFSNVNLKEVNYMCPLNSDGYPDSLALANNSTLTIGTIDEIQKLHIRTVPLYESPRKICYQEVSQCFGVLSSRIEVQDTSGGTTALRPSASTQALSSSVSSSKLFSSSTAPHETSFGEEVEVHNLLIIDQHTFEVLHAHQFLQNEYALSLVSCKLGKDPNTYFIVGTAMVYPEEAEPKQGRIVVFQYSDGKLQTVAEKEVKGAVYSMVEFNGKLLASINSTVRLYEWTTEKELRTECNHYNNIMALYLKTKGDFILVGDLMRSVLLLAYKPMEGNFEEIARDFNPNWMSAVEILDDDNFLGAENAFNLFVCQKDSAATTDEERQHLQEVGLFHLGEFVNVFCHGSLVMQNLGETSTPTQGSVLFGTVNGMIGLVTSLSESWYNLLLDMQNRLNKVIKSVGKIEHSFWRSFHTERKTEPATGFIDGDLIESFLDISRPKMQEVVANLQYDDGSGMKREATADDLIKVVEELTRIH
Method: The effect of the molecular glue compounds of the invention on the formation of a ternary complex composed of [NEK7]-[compound of formula (I)]-[CRBN/DDB1] was investigated with two methods: AlphaLISA dose response assay or HTRF ternary complex assay.
Two types of protein solution were prepared: • 200 nM biotinylated NEK7, 40 μg/ml AlphaScreen Streptavidin-coated Donor Beads in HBS (10 mM HEPES, 150 mM NaCL, pH 7.4) buffer with 0.1% Tween-20 and 1 mM DTT, • 200 nM 6×His-CRBN/Strep-DDB1, 40 μg/ml AlphaLISA Anti-6×His Acceptor beads in HBS buffer with 0.1% Tween-20 and 1 mM DTT.
The prepared solutions were incubated at room temperature for 30 min and then the solution containing the donor beads was mixed with the solution containing the acceptor beads.
The tested compounds were dispensed onto a white 384-well AlphaPlate 384 SW. DMSO was backfilled to all wells, resulting in a final DMSO content of 2%. Wells containing only DMSO served as background. Next, 10 μl of solution with donor and acceptor beads was added to the wells.
The plate was sealed with transparent film and shaken using a VibroTurbulator for 60 sec at room temperature, level 3. The plate was then spun down shortly (10 s, 1000 rcf, room temperature) and incubated at 25° C. for 30 min.
The read-out was performed with PerkinElmer Enspire Multimode Plate Reader (method for AlphaLISA 384-well low volume, Filterset: λexc=680 nm, λem=615 nm).
The results were analyzed as follows: • 1) an average of luminescence for background signal was calculated and used as a negative control; • 2) average of the maximum measured luminescence for Compound 2 was calculated and used as an internal positive control; • 3) raw luminescence values were normalized against positive and negative controls; • 4) Normalized responses to Compound 2 were determined.

[2] = biological target: T1, [NEK7]-[compound of formula (I)]-[CRBN/DDB1] complex; assay: HTRF ternary complex assay; type: binding; conditions: dose-response, 180 min at 25° C.; for EC50: read-out: HTRF ternary complex Average pEC50 by molecule (converted)
Method: The effect of the molecular glue compounds of the invention on the formation of a ternary complex composed of [NEK7]-[compound of formula (I)]-[CRBN/DDB1] was investigated.
Mix solution of proteins and reagents was prepared: • 24 nM NEK7, 52.8 nM 6×His-CRBN/Strep-DDB1, 3 nM of Streptavidin-Eu cryptate […] and 6.67 nM of Anti-6×his-d2 […] was prepared in PPI Europium detection buffer (Cisbio) with 1 mM DTT.
The tested compounds in dose-response were dispensed onto a white 384-well low volume plate (Greiner, 784075). DMSO was backfilled to all wells, resulting in a final DMSO content of 0.5%. Wells containing only DMSO served as background.
The plate was sealed with transparent film and shaken using a VibroTurbulator for 60 sec at level 3.
The plate was then spun down shortly (10 s, 1000 rcf) and incubated at 25° C. for 180 min.
The read-out was performed with plate reader (Pherastar, BMG Labtech) in time resolved fluorescence mode. Filterset: TR 337 665 620.
The results were analyzed as follows: • 1) an average of fluorescence for background signal was calculated and used as a negative control; • 2) raw fluorescence values for tested compounds were normalized against negative controls; • 3) saturation curve was fitted to specific binding with Hill slope model; • 4) EC50 and pEC50 values were determined.

Chain of NEK7-HiBiT protein (Q8TDX7 whole entry): as the sequence (Q8TDX7 whole entry) above
Chain of NEK7-HiBiT protein (Q96SW2 whole entry, further chain): as the sequence (Q96SW2 whole entry) above
Chain of NEK7-HiBiT protein (Q16531 whole entry partner): as the sequence (Q16531 whole entry partner) above

Compound | Levels of NEK7-HiBiT Protein (as a % of DMSO control) (NEK7-HiBiT protein) | activation at 1 µM [1] | EC50 [2] | Normalized AlphaLISA ternary complex average signal at 1 μM molecule [1] | HTRF ternary complex Average pEC50 by molecule [2]
O=C1CCC(N2Cc3cc(C4CCC(Cc5ccccc5)CN4)ccc3C2=O)C(=O)N1 (single isomer, unassigned) [35 Isomer 1, 3-(5-(5-benzylpiperidin-2-yl)-1-oxoisoindolin-2-yl)piperidine-2,6-dione] | B (Levels of NEK7-HiBiT Protein > 25% and ≤50%) | > 80% | 100 to 316 nM |  | 
O=C1CCC(N2Cc3cc(C4CCCCCN4)ccc3C2=O)C(=O)N1 (centres unmarked) [Compound 62, 3-(5-(azepan-2-yl)-1-oxoisoindolin-2-yl)piperidine-2,6-dione] | B (Levels of NEK7-HiBiT Protein > 25% and ≤50%) | 20 to 80% | 316 to 1000 nM |  | 
COc1ccc(-c2ccc3c(c2)CN(C2CCC(=O)NC2=O)C3=O)nc1 (centres unmarked) [25(2), 3-(5-(5-methoxypyridin-2-yl)-1-oxoisoindolin-2-yl)piperidine-2,6-dione] | A (Levels of NEK7-HiBiT Protein ≤ 25%) | > 80% | 100 to 316 nM |  | 
O=C1CCC(N2C(=O)c3ccc(-c4ccccn4)c4cccc2c34)C(=O)N1 (centres unmarked) [23(2), 3-(2-oxo-5-(pyridin-2-yl)benzo[cd]indol-1 (2H)-yl)piperidine-2,6-dione] | B (Levels of NEK7-HiBiT Protein > 25% and ≤50%) | > 80% | < 100 nM |  | 
CC(=O)Nc1ccc(-c2ccc3c(c2)CN(C2CCC(=O)NC2=O)C3=O)nc1 (centres unmarked) [7(2), N-(6-(2-(2,6-dioxopiperidin-3-yl)-1-oxoisoindolin-5-yl)pyridin-3-yl)acetamide] | B (Levels of NEK7-HiBiT Protein > 25% and ≤50%) | > 80% | 100 to 316 nM |  | 
CCCCC1CCC(c2ccc3c(c2)CN(C2CCC(=O)NC2=O)C3=O)OC1 (single isomer, unassigned) [70 Isomer 1, 3-(5-(5-butyltetrahydro-2H-pyran-2-yl)-1-oxoisoindolin-2-yl)piperidine-2,6-dione] | D (Levels of NEK7-HiBiT Protein ≥ 75%) |  | > 3160 nM | D (Normalized activity < 10%) | 
O=C1CCC(N2Cc3cc(C4CCCCN4)cc(F)c3C2=O)C(=O)N1 (centres unmarked) [Compound 24, 3-(7-fluoro-1-oxo-5-(piperidin-2-yl)isoindolin-2-yl)piperidine-2,6-dione] | D (Levels of NEK7-HiBiT Protein ≥ 75%) | < 10% | > 3160 nM |  | 
O=C1CCC(N2Cc3c(ccc(C4CCCCN4)c3F)C2=O)C(=O)N1 (centres unmarked) [Compound 22, 3-(4-fluoro-1-oxo-5-(piperidin-2-yl)isoindolin-2-yl)piperidine-2,6-dione] | A (Levels of NEK7-HiBiT Protein ≤ 25%) | < 10% | > 3160 nM |  | 
CC(C)C1CCC(c2ccc3c(c2)CN(C2CCC(=O)NC2=O)C3=O)NC1 (single isomer, unassigned) [55 Isomer 2, 3-(5-(5-isopropylpiperidin-2-yl)-1-oxoisoindolin-2-yl)piperidine-2,6-dione] | B (Levels of NEK7-HiBiT Protein > 25% and ≤50%) |  |  | A (Normalized activity > 80%) | +++ (6.5 > pEC50 > 6.0)
O=C1CCC(N2Cc3cc([C@H]4CCCCN4)ccc3C2=O)C(=O)N1 (stereo partly drawn) [Compound 9, 3-(1-oxo-5-((R)-piperidin-2-yl)isoindolin-2-yl)piperidine-2,6-dione] | A (Levels of NEK7-HiBiT Protein ≤ 25%) | > 80% | 316 to 1000 nM |  | 
3-(5-((2R,6R)-6-butyltetrahydro-2H-pyran-2-yl)-1-oxoisoindolin-2-yl)piperidine-2,6-dione and 3-(5-((2S,6S)-6-butyltetrahydro-2H-pyran-2-yl)-1-oxoisoindolin-2-yl)piperidine-2,6-dione [69 Isomer 2] | B (Levels of NEK7-HiBiT Protein > 25% and ≤50%) |  |  | B (Normalized activity > 20% and <80%) | ++++ (7.0 > pEC50 > 6.5)
O=C1CCC(N2C(=O)c3ccc(C4CCCCN4)cc3C2=O)C(=O)N1 (centres unmarked) [Compound 1, 2-(2,6-dioxopiperidin-3-yl)-5-(piperidin-2-yl)isoindoline-1,3-dione] | A (Levels of NEK7-HiBiT Protein ≤ 25%) | 20 to 80% | 1000 to 3160 nM |  | 
CC(C)C1CCC(c2ccc3c(c2)CN(C2CCC(=O)NC2=O)C3=O)NC1 (single isomer, unassigned) [55 Isomer 1, 3-(5-(5-isopropylpiperidin-2-yl)-1-oxoisoindolin-2-yl)piperidine-2,6-dione] | C (Levels of NEK7-HiBiT Protein > 50% and <75%) |  | 316 to 1000 nM | B (Normalized activity > 20% and <80%) | 
O=C1CCC(N2Cc3cc(C4CCC(Cc5ccccc5)CN4)ccc3C2=O)C(=O)N1 (single isomer, unassigned) [35 Isomer 2, 3-(5-(5-benzylpiperidin-2-yl)-1-oxoisoindolin-2-yl)piperidine-2,6-dione] | B (Levels of NEK7-HiBiT Protein > 25% and ≤50%) |  |  |  | 
CC(C)(C)C(=O)OCN1C(=O)CCC(N2Cc3cc(C4CCCCN4)ccc3C2=O)C1=O (centres unmarked) [Compound 63, (2,6-dioxo-3-(1-oxo-5-(piperidin-2-yl)isoindolin-2-yl)piperidin-1-yl)methyl pivalate] | A (Levels of NEK7-HiBiT Protein ≤ 25%) |  |  |  | 

Reference: US20260151403A1, “NEK7 DEGRADERS AND METHODS OF USE THEREOF” (Captor Therapeutics S.A., priority 2022, published 2026)
